Reference: paper PMC11714206, “Massively Parallel Screening of Toll/Interleukin‐1 Receptor (TIR)‐Derived Peptides Reveals Multiple Toll‐Like Receptors (TLRs)‐Targeting Immunomodulatory Peptides” (Advanced Science, 2024)

Biological target: T1, MAL^TIR (Homo sapiens, UniProt P58753)
T1 construct: MAL (residues 79–221); 6xHis; made in house; host or cells: E. coli BL21 (DE3)
Experiment: T‐Surf phage library (P8 and P3) selection against MAL^TIR, four rounds, NGS read counts
Format: binding
Settings: for P3_MAL Rank (after) / P3_MAL Rank (before): P3 library; for P8_MAL Rank (after) / P8_MAL Rank (before): P8 library; for Population: 4th round of selection against MAL TIR, share of NGS reads
In short: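 Four panning rounds on TIR domain adsorbed at 5 µg mL^−1; binding 1 h at 20–22 °C, elution with 100 mM HCl. Output: NGS read counts of round‐4 pools versus naïve library.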

[1] = selection against MAL TIR, rank by count after grouping
[2] = selection against MAL TIR, rank by count before grouping
[3] = selection against MAL, rank by count after grouping
[4] = selection against MAL, rank by count before grouping
[5] = 4R selection against MAL, rank after grouping
[6] = 4R selection against MAL, rank before grouping
[7] = P3_MAL: rank by count after grouping
[8] = P3_MAL: rank by count before grouping
[9] = selection against MAL, rank after grouping
[10] = selection against MAL, rank before grouping
[11] = P8_MAL: rank by count after grouping
[12] = P8_MAL: rank by count before grouping
[13] = P3_MAL pool: P3 T-Surf phage library
[14] = P8_MAL pool: P8 T-Surf phage library

T1 sequence (P58753 79-221): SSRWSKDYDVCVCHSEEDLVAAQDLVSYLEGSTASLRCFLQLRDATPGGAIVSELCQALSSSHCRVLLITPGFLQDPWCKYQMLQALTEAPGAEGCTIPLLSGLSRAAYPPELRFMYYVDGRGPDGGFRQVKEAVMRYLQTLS

## RLLNWKEARHQFHSWV
[1]
  P3_MAL Rank (after): 243
[2]
  P3_MAL Rank (before): 2479

## KERLHQWKLALTQAANLS
[3]
  P3_MAL Rank (after): 766
[4]
  P3_MAL Rank (before): 3603

## RNLVAYLLQPRANKCI
[5]
  P8_MAL Rank (after): 603
[6]
  P8_MAL Rank (before): 2242

## WFWNNLKYALPLRYDP
[7]
  Rank (after): 451
[8]
  Rank (before): 1266

## PNLRTQVQNYLLPNKT
[9]
  P3_MAL Rank (after): 524
[10]
  P3_MAL Rank (before): 2686

## AFFCAHLRTVLGKPTM
[1]
  P8_MAL Rank (after): 267
[2]
  P8_MAL Rank (before): 1586

## SSFRDGLWRLPELSKK
[1]
  P3_MAL Rank (after): 246
[2]
  P3_MAL Rank (before): 3130

## WFYNHLVSLFLRDTKV
[9]
  P8_MAL Rank (after): 520
[10]
  P8_MAL Rank (before): 1306

## AFFRDQLRTVLGKPTM
[5]
  P8_MAL Rank (after): 609
[6]
  P8_MAL Rank (before): 1751

## YFWNALENALAVNNDV
[7]
  Rank (after): 479
[8]
  Rank (before): 1335

## FLSHLHRYLVQRGV
[5]
  P3_MAL Rank (after): 601
[6]
  P3_MAL Rank (before): 1134

## TFLGHLYNALVQAGKL
[1]
  P8_MAL Rank (after): 230
[2]
  P8_MAL Rank (before): 2583

## AFLYTFLINLTHLPNF
[11]
  Rank (after): 95
[12]
  Rank (before): 1842

## SFLGHLYNALVQADIH
[5]
  P8_MAL Rank (after): 664
[6]
  P8_MAL Rank (before): 1452

## YFLHFLLFSRPEPAYI
[11]
  Rank (after): 114
[12]
  Rank (before): 1463

## WFFQEKVKIFEARKTI
[5]
  P3_MAL Rank (after): 669
[6]
  P3_MAL Rank (before): 1224

## YNFISHLYDTLHRNRN
[1]
  P3_MAL Rank (after): 272
[2]
  P3_MAL Rank (before): 1578

## SSFREGLWRLLELNKK
[13]
  Population: 0.00488%

## GSFREGLWRLLELSKK
[13]
  Population: 0.00639%

## RVFLSHLRHHLQAKDH
[13]
  Population: 0.0124%

## NLWRNALTAAANLSSW
[3]
  P8_MAL Rank (after): 720
[4]
  P8_MAL Rank (before): 2656

## KWFLAKLIYALSRNPH
[3]
  P3_MAL Rank (after): 758
[4]
  P3_MAL Rank (before): 3484

## LVFWESLKHLLRSDDR
[5]
  P8_MAL Rank (after): 636
[6]
  P8_MAL Rank (before): 2163

## AFLYTFLINLTRQTNF
[11]
  Rank (after): 147
[12]
  Rank (before): 1837

## YAFTGHLHRYLVQRRS
[3]
  P3_MAL Rank (after): 704
[4]
  P3_MAL Rank (before): 1408

## NQWRNALTAAANQSGL
[7]
  Rank (after): 161
[8]
  Rank (before): 3383

## NGHGSAIIKEIVVTSW
[7]
  Rank (after): 468
[8]
  Rank (before): 3252

## PEKDNGGANAFSNNIV
[1]
  P3_MAL Rank (after): 200
[2]
  P3_MAL Rank (before): 2645

## VEPTQVRKQSGAVEM
[3]
  P3_MAL Rank (after): 716
[4]
  P3_MAL Rank (before): 1671

## LFLGESLKLLRRSDGR
[5]
  P8_MAL Rank (after): 652
[6]
  P8_MAL Rank (before): 2150

## DWFVSKLSQQILQREK
[3]
  P3_MAL Rank (after): 729
[4]
  P3_MAL Rank (before): 1862

## SSFREGLWRLPELCKK
[7]
  Rank (after): 430
[8]
  Rank (before): 3163

## WFYERLVKLVLRDTKV
[11]
  Rank (after): 166
[12]
  Rank (before): 1244

## WFYERLVGLILRDTKV
[14]
  Population: 0.0034%

## PNLRTKVLYYPMRTKT
[5]
  P3_MAL Rank (after): 624
[6]
  P3_MAL Rank (before): 2699

## DWFLSHLRHHLQAKDH
[7]
  Rank (after): 183
[8]
  Rank (before): 779

## SEFIQKIILWMNQTNV
[11]
  Rank (after): 440
[12]
  Rank (before): 2473

## AFLYPFLINLTHPTIP
[9]
  P8_MAL Rank (after): 512
[10]
  P8_MAL Rank (before): 1816

## QLIQHWIELHQHQLHL
[5]
  P8_MAL Rank (after): 630
[6]
  P8_MAL Rank (before): 2348

## WFYESLVSMIMRDTKV
[1]
  P8_MAL Rank (after): 213
[2]
  P8_MAL Rank (before): 1303

## YFLHFLLFSRLETEYI
[14]
  Population: 0.00278%

## DWFLSKLSQHILKKG
[7]
  Rank (after): 393
[8]
  Rank (before): 1892

## YAFTGHLRHHLQAKDH
[7]
  Rank (after): 120
[8]
  Rank (before): 394

## AFLYTFLGHLYNALVQAGIH
[9]
  P8_MAL Rank (after): 497
[10]
  P8_MAL Rank (before): 1828

## ALLYTFLIHLTHPTNS
[5]
  P8_MAL Rank (after): 594
[6]
  P8_MAL Rank (before): 1929

## RNNFLGYLYQALYRIG
[5]
  P8_MAL Rank (after): 604
[6]
  P8_MAL Rank (before): 2263

## MSHLYQGLQHRGIFTF
[7]
  Rank (after): 396
[8]
  Rank (before): 2943

## PNLRTKVLNYLMRIKT
[13]
  Population: 0.00413%

## AFFWQQLKSVPGNPTM
[11]
  Rank (after): 154
[12]
  Rank (before): 1718

## YAFTGHLHRYLVQRDM
[7]
  Rank (after): 391
[8]
  Rank (before): 1403

## YAFTDHLHRYLVQRSE
[9]
  P3_MAL Rank (after): 555
[10]
  P3_MAL Rank (before): 1462

## SSFREGLWRLLELSNE
[7]
  Rank (after): 153
[8]
  Rank (before): 1027

## YAFTGPPHRYMVQRGV
[7]
  Rank (after): 460
[8]
  Rank (before): 1354

## AFLYTFLVNLTHPPNF
[11]
  Rank (after): 134
[12]
  Rank (before): 1827

## AFLWTYLSNLMHQPTF
[9]
  P8_MAL Rank (after): 483
[10]
  P8_MAL Rank (before): 1797

## LFFWESLKQLLRAMA
[11]
  Rank (after): 473
[12]
  Rank (before): 2095

## YAFTGHLHRFWCSVA
[7]
  Rank (after): 158
[8]
  Rank (before): 727

## YAFTGHLHRYLVQLGV
[13]
  Population: 0.00676%

## SSFREDMWRRLELSQQ
[5]
  P3_MAL Rank (after): 658
[6]
  P3_MAL Rank (before): 3188

## GWFREGLWRLLELSKK
[1]
  P3_MAL Rank (after): 279
[2]
  P3_MAL Rank (before): 1756

## LFFWESLKQLLRTVLGKPTM
[5]
  P8_MAL Rank (after): 669
[6]
  P8_MAL Rank (before): 2109

## DPQDLQWFYERLVSLI
[11]
  Rank (after): 447
[12]
  Rank (before): 1990

## HPKGSYREALAEHEKR
[9]
  P3_MAL Rank (after): 503
[10]
  P3_MAL Rank (before): 2809

## LFFWESLKKLLRSAGR
[9]
  P8_MAL Rank (after): 531
[10]
  P8_MAL Rank (before): 2114

## SEFIQKIILWLNTKIV
[1]
  P8_MAL Rank (after): 203
[2]
  P8_MAL Rank (before): 2461

## WRCLNFVPRCIMCCR
[9]
  P3_MAL Rank (after): 482
[10]
  P3_MAL Rank (before): 1287

## WFYERMVRLILRDTKV
[1]
  P8_MAL Rank (after): 247
[2]
  P8_MAL Rank (before): 1291

## NQWRNALTAAAKLSGG
[9]
  P3_MAL Rank (after): 564
[10]
  P3_MAL Rank (before): 3384

## TFLGHLYNALLRSDGR
[5]
  P8_MAL Rank (after): 654
[6]
  P8_MAL Rank (before): 2590

## KEVDGWRDALTQVASL
[1]
  P3_MAL Rank (after): 196
[2]
  P3_MAL Rank (before): 3547

## PNLRTKGLNYRMRTKT
[7]
  Rank (after): 415
[8]
  Rank (before): 2736

## TLLCHLYNALVQAGIH
[1]
  P8_MAL Rank (after): 239
[2]
  P8_MAL Rank (before): 2637

## LFFWERLKQLLRSDCR
[11]
  Rank (after): 100
[12]
  Rank (before): 2072

## PNLRTNVLNYLIRTKT
[7]
  Rank (after): 141
[8]
  Rank (before): 2745

## YAFTGHLHRYLVRRGV
[13]
  Population: 0.00338%

## WFYERLVSLIQRDTTV
[1]
  P8_MAL Rank (after): 212
[2]
  P8_MAL Rank (before): 1278

## KMQKWKDALYEAAN
[3]
  P3_MAL Rank (after): 710
[4]
  P3_MAL Rank (before): 3685

## RLLKWKEALHQFIAG
[1]
  P3_MAL Rank (after): 264
[2]
  P3_MAL Rank (before): 2518

## WFMNVW*A*FCVIPKX
[14]
  Population: 0.00432%

## SFFWNKLRYILPAPNN
[5]
  P3_MAL Rank (after): 596
[6]
  P3_MAL Rank (before): 3013

## TFLCHLYSTLVQARIH
[11]
  Rank (after): 402
[12]
  Rank (before): 2546

## WFYERLVILVLRDTKG
[1]
  P8_MAL Rank (after): 250
[2]
  P8_MAL Rank (before): 1179
